Experiments:
[1] = tested on: CCL2, CCL5 and IL6, CCL21A and CCL19; assay: Proinflammatory gene expression (real time PCR) in TWEAK-stimulated PBMCs from healthy donors; format: cell-based, Human; conditions: 15 µmol/L paricalcitol 48 hours, TWEAK 100 ng/mL 6 hours
TRAF3 [2] = assay: Renal TRAF3 (western blot), TWEAK-mediated renal inflammation in mice; format: in vivo; conditions: TWEAK 0.5 µg model; paricalcitol 750 ng/kg/day i.p.; sacrificed 24 hours after TWEAK
Experimental: (§1) All animal procedures were performed according to the guidelines of animal research in the European Community and with prior approval by the Ethics Committee of the Health Research of the IIS-Fundacion Jiménez Díaz. For in vivo studies, mice received a daily intraperitoneal injection of the VDRA Paricalcitol starting 48 hours prior to induction of kidney damage.
(§2) At the time of sacrifice, animals were anesthetized with 5 mg/kg xylazine (Rompun, Bayer AG) and 35 mg/kg ketamine (Ketolar, Pfizer) and the kidneys perfused in situ with cold saline before removal. Then, kidney portions were fixed in formalin buffer for immunohistochemistry studies or immediately frozen in liquid nitrogen for gene and protein studies.
TWEAK administration: C57BL/6 female mice (9-12 weeks, weight 20 g, 7-8 animals per group), received a single intraperitoneal injection of 0.5 µg TWEAK dissolved in saline and were sacrificed 24 hours later, as previously described (Sanz et al. 2008). Controls were injected with the saline vehicle (n=8-10 mice per group). TWEAK endotoxin level were <0.1 ng/mg, confirmed by MALDI-TOF. […]
(§3) For western blot, cell (25 µg/lane) and kidney (100-150 µg/lane) protein extracts were separated on 6%-12% polyacrylamide-SDS gels under reducing conditions. […] Autoradiographs were scanned using the Gel Doc™ EZ imager and analyzed with the Image Lab 3.0 software (BioRad).

TRAF3 [3] = assay: Renal TRAF3 (western blot), unilateral ureteral obstruction in mice; format: in vivo; conditions: paricalcitol 750 ng/kg/day i.p., studied after 5 days
Experimental: as §1, §2
Unilateral ureteral obstruction (UUO) was established in male C57BL/6 mice, under isoflurane-induced anesthesia. […]
as §3

[4] = tested on: renal inflammation in experimental Unilateral Ureteral Obstruction (UUO); assay: Renal inflammation in unilateral ureteral obstruction (UUO) in mice; format: in vivo, C57BL/6 mice; conditions: obstructed kidneys (UUO), paricalcitol 750 ng/kg/day
Experimental: as §1
At the time of sacrifice, animals were anesthetized with 5 mg/kg xylazine (Rompun, Bayer AG) and 35 mg/kg ketamine (Ketolar, Pfizer) and the kidneys perfused in situ with cold saline before removal. […]
Paraffin-embedded kidney sections (3 µm) were stained using conventional methods. […] For each sample (processed by duplicate in a blinded manner), the average value was obtained from the analysis of 4 fields (20X objective) as density/mm2 or percentage stained area vs total analyzed area. Data are expressed as fold increase over control mice, as mean ± SEM of 8-10 animals per group. […]
Total RNA was isolated from cells and mouse kidney samples with Trizol (Invitrogen). […] The mRNA copy numbers were calculated for each sample by the instrument software using Ct value. Results are expressed in copy numbers, calculated relative to unstimulated cells or control mice, after normalization against 18S.

Compound: C[C@H](/C=C/[C@H](C)C(C)(C)O)[C@H]1CC[C@H]2/C(=C/C=C3C[C@@H](O)C[C@H](O)C3)CCC[C@]12C [paricalcitol]
- TWEAK-induced upregulation of several proinflammatory genes, such as CCL2, CCL5 and IL6, as well as the NF-κB2-controlled genes CCL21A and CCL19 [1]: inhibited
- renal TRAF3 protein levels (TRAF3 [2]): restored renal TRAF3 protein levels to values of control mice
- renal TRAF3 protein levels (TRAF3 [3]): restored renal TRAF3 protein levels to values of control mice
- inflammatory cell infiltration ([4]; 5 days after UUO): prevented
- increased expression of proinflammatory factors, such as CCL2, CCL5, IL6 ([4]; real time PCR): prevented

Source: EP3748362A1, “IN VITRO METHOD FOR DETECTING RENAL DISEASE” (Fundacion Instituto De Investigacion Sanitaria Fundacion …, priority 2019, dated 2020)
